# Results published in ChEMBL document CHEMBL1201862, “PubChem BioAssay data set” (2004).
#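 In this assay, cells in 96-well plates receive the compound at five concentrations for 48 hours. Endpoints are linearly interpolated between the surrounding concentrations. Here, GI50 denotes the concentration required for 50% inhibition of growth.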 Calls of active or inactive are those of the source. No stated cut-off is given here; in the data, active = GI50 up to about 1.1 µM and inactive = higher.
# How the values were obtained:
# Assay in all cases: NCI-60 cell line screen, 48 h
# [1] = test system: HT-29
# [2] = test system: DLD-1
# [3] = test system: SK-MEL-28
# [4] = test system: A498
# [5] = test system: TK-10
# [6] = test system: HCT-15
# [7] = test system: SK-MEL-2
# [8] = test system: SK-MEL-5
# [9] = test system: UACC-62
# [10] = test system: K562
# [11] = test system: HL-60
# [12] = test system: 786-0
# [13] = test system: SW-620
# [14] = test system: OVCAR-4
# [15] = test system: SNB-78
# [16] = test system: HOP-62
# [17] = test system: SF-539
# [18] = test system: DMS-114
# [19] = test system: CCRF-CEM
# [20] = test system: COLO 205
# [21] = test system: NCI-H460
# [22] = test system: UACC-257
# [23] = test system: UO-31
# [24] = test system: SN12C
# [25] = test system: Malme-3M
# [26] = test system: KM12
# [27] = test system: CAKI-1
# [28] = test system: LOX IMVI
# [29] = test system: SF-268
# [30] = test system: KM-20L2
# [31] = test system: LXFL 529
# [32] = test system: IGROV-1
# [33] = test system: ACHN
# [34] = test system: OVCAR-5
# [35] = test system: MOLT-4
# [36] = test system: RXF 393
# [37] = test system: NCI-H522
# [38] = test system: RPMI-8226
# [39] = test system: NCI-H23
# [40] = test system: SNB-75
# [41] = test system: HOP-92
# [42] = test system: M19-MEL
# [43] = test system: XF498
# [44] = test system: SF-295
# [45] = test system: NCI-H226
# [46] = test system: SNB-19
# [47] = test system: M14
# [48] = test system: SK-OV-3
# [49] = test system: A549
# [50] = test system: OVCAR-3
# [51] = test system: HCC 2998
# [52] = test system: OVCAR-8
# [53] = test system: DMS-273
# [54] = test system: EKVX
# [55] = test system: U-251
# [56] = test system: HCT-116
structure (smiles),measurement,setting,value
COC(=O)/C(Cl)=C1/CC1COCc1ccccc1 (stereo not given),GI50,[1],25 µM (inactive)
same,GI50,[2],20.4 µM (inactive)
same,GI50,[3],21.8 µM (inactive)
same,GI50,[4],22.6 µM (inactive)
same,GI50,[5],30.8 µM (inactive)
same,GI50,[6],17.1 µM
same,GI50,[7],31.9 µM (inactive)
same,GI50,[8],24.1 µM (inactive)
same,GI50,[9],23.9 µM (inactive)
same,GI50,[10],17.9 µM (inactive)
same,GI50,[11],13.6 µM (inactive)
same,GI50,[12],19.7 µM (inactive)
same,GI50,[13],21.1 µM (inactive)
same,GI50,[14],31 µM (inactive)
same,GI50,[15],45.9 µM (inactive)
same,GI50,[16],> 100 µM (inactive)
same,GI50,[17],23.8 µM (inactive)
same,GI50,[18],28.8 µM (inactive)
same,GI50,[19],14 µM (inactive)
same,GI50,[20],21.2 µM (inactive)
same,GI50,[21],43.4 µM (inactive)
same,GI50,[22],34.7 µM (inactive)
same,GI50,[23],28.8 µM (inactive)
same,GI50,[24],36.6 µM (inactive)
same,GI50,[25],26.6 µM (inactive)
same,GI50,[26],28.7 µM (inactive)
same,GI50,[27],22.6 µM (inactive)
same,GI50,[28],> 10 µM (inactive)
same,GI50,[29],43.8 µM (inactive)
same,GI50,[30],41.4 µM (inactive)
same,GI50,[31],17.1 µM (inactive)
same,GI50,[32],44.9 µM (inactive)
same,GI50,[33],25.4 µM (inactive)
same,GI50,[34],74.3 µM (inactive)
same,GI50,[35],19.8 µM (inactive)
same,GI50,[36],18.9 µM (inactive)
same,GI50,[37],20.3 µM (inactive)
same,GI50,[38],19.5 µM (inactive)
same,GI50,[39],31.5 µM (inactive)
same,GI50,[40],47.8 µM (inactive)
same,GI50,[41],22.9 µM (inactive)
same,GI50,[42],33.3 µM (inactive)
same,GI50,[43],26.4 µM (inactive)
same,GI50,[44],53.5 µM (inactive)
same,GI50,[45],32.3 µM (inactive)
same,GI50,[46],78.9 µM (inactive)
same,GI50,[47],17 µM (inactive)
same,GI50,[48],> 100 µM (inactive)
same,GI50,[49],54.7 µM (inactive)
same,GI50,[50],23.2 µM (inactive)
same,GI50,[51],> 10 µM (inactive)
same,GI50,[52],30.5 µM (inactive)
same,GI50,[53],20.7 µM (inactive)
same,GI50,[54],> 10 µM (inactive)
N=C1CSC2=NC3=C(CCC/C3=C\c3ccccc3)C(c3ccccc3)N12 (stereo not given),GI50,[1],2.97 µM (inactive)
same,GI50,[2],5.4 µM (inactive)
same,GI50,[3],7.5 µM (inactive)
same,GI50,[4],13.9 µM (inactive)
same,GI50,[5],5.28 µM (inactive)
same,GI50,[7],2.27 µM (inactive)
same,GI50,[8],6.31 µM (inactive)
same,GI50,[9],9.23 µM (inactive)
same,GI50,[10],3.21 µM (inactive)
same,GI50,[11],2.34 µM (inactive)
same,GI50,[12],5.65 µM (inactive)
same,GI50,[13],3.92 µM (inactive)
same,GI50,[15],5.77 µM (inactive)
same,GI50,[16],11 µM (inactive)
same,GI50,[17],6 µM (inactive)
same,GI50,[18],2.8 µM (inactive)
same,GI50,[19],2.24 µM (inactive)
same,GI50,[20],8.89 µM (inactive)
same,GI50,[21],3.42 µM (inactive)
same,GI50,[22],11.5 µM (inactive)
same,GI50,[23],11.2 µM (inactive)
same,GI50,[24],11.5 µM (inactive)
same,GI50,[25],17.2 µM (inactive)
same,GI50,[26],3.7 µM (inactive)
same,GI50,[55],3.42 µM (inactive)
same,GI50,[27],12.5 µM (inactive)
same,GI50,[28],2.26 µM (inactive)
same,GI50,[29],11.8 µM (inactive)
same,GI50,[30],4.37 µM (inactive)
same,GI50,[31],4.89 µM (inactive)
same,GI50,[32],5.6 µM (inactive)
same,GI50,[33],11.9 µM (inactive)
same,GI50,[34],6.53 µM (inactive)
same,GI50,[35],2.49 µM (inactive)
same,GI50,[36],4.5 µM (inactive)
same,GI50,[56],3.54 µM (inactive)
same,GI50,[37],2.61 µM (inactive)
same,GI50,[38],2.16 µM (inactive)
same,GI50,[39],3.93 µM (inactive)
same,GI50,[40],10.6 µM (inactive)
same,GI50,[42],5.19 µM (inactive)
same,GI50,[43],20.7 µM (inactive)
same,GI50,[44],5.85 µM (inactive)
same,GI50,[45],6.38 µM (inactive)
same,GI50,[46],5.94 µM (inactive)
same,GI50,[47],3.3 µM (inactive)
same,GI50,[48],15.1 µM (inactive)
same,GI50,[49],4.07 µM (inactive)
same,GI50,[50],2.72 µM (inactive)
same,GI50,[51],3.31 µM (inactive)
same,GI50,[52],5.92 µM (inactive)
same,GI50,[53],3.8 µM (inactive)
same,GI50,[54],2.62 µM (inactive)
Cc1ccc(Nc2ccc(Nc3ccc(C)cc3)c3c2C(=O)c2c(O)ccc(O)c2C3=O)cc1,GI50,[2],> 100 µM (inactive)
same,GI50,[3],91.4 µM (inactive)
same,GI50,[4],> 100 µM (inactive)
same,GI50,[5],> 100 µM (inactive)
same,GI50,[6],> 100 µM
same,GI50,[7],> 100 µM (inactive)
same,GI50,[8],> 100 µM (inactive)
same,GI50,[9],> 100 µM (inactive)
same,GI50,[10],> 100 µM (inactive)
same,GI50,[11],80.9 µM (inactive)
same,GI50,[12],> 100 µM (inactive)
same,GI50,[13],> 100 µM (inactive)
same,GI50,[14],> 100 µM (inactive)
same,GI50,[15],68.1 µM (inactive)
same,GI50,[16],> 100 µM (inactive)
same,GI50,[17],66.2 µM (inactive)
same,GI50,[18],> 100 µM (inactive)
same,GI50,[19],67.6 µM (inactive)
same,GI50,[20],> 100 µM (inactive)
same,GI50,[21],> 100 µM (inactive)
same,GI50,[22],> 100 µM (inactive)
same,GI50,[23],> 100 µM (inactive)
same,GI50,[24],> 100 µM (inactive)
same,GI50,[25],> 100 µM (inactive)
same,GI50,[26],> 100 µM (inactive)
same,GI50,[55],> 100 µM (inactive)
same,GI50,[27],> 100 µM (inactive)
same,GI50,[28],> 100 µM (inactive)
same,GI50,[29],> 100 µM (inactive)
same,GI50,[31],75.2 µM (inactive)
same,GI50,[32],> 100 µM (inactive)
same,GI50,[33],> 100 µM (inactive)
same,GI50,[34],> 100 µM (inactive)
same,GI50,[35],> 100 µM (inactive)
same,GI50,[36],> 100 µM (inactive)
same,GI50,[56],> 100 µM (inactive)
same,GI50,[37],47.8 µM (inactive)
same,GI50,[38],> 100 µM (inactive)
same,GI50,[39],> 100 µM (inactive)
same,GI50,[40],68.4 µM (inactive)
same,GI50,[41],> 100 µM (inactive)
same,GI50,[42],> 100 µM (inactive)
same,GI50,[43],> 100 µM (inactive)
same,GI50,[44],> 100 µM (inactive)
same,GI50,[46],> 100 µM (inactive)
same,GI50,[47],> 100 µM (inactive)
same,GI50,[48],> 100 µM (inactive)
same,GI50,[49],> 100 µM (inactive)
same,GI50,[50],70.5 µM (inactive)
same,GI50,[51],> 100 µM (inactive)
same,GI50,[52],> 100 µM (inactive)
same,GI50,[53],> 100 µM (inactive)
same,GI50,[54],> 100 µM (inactive)
